This note sets out measurements from patent EP0951284B1, “[…] DERIVATIVES” (priority 1996, dated 1998).

Structures can show the parent of a compound that is named as a salt.

In data set [1] the test system is MAO-A. In words: Inhibition of MAO activity ex vivo (brain tissue), 5-HT substrate. The class given is in vivo, mice. The settings on record: mouse brain tissue. On the procedure: (§1) Male Sabra mice, weighing 45-50g were injected with test compound solutions (prepared in 0.9% saline). Each dose was administered to two or three mice. The mice were sacrificed two hours after drug administration or at a time corresponding to the peak AChE inhibition time (see Table 6). The brain and liver were rapidly dissected and stored in appropriate vials on ice. The tissues were weighed, diluted to 1/20 in sucrose 0.3M and stored at -20°C before performance of the MAO assay described above. The results given in Table 6 relate to measurements made on brain tissue only.

For data set [2], the target named is T1, MAO-A (Rattus norvegicus, UniProt P21396).
T1 sequence (P21396 1-526): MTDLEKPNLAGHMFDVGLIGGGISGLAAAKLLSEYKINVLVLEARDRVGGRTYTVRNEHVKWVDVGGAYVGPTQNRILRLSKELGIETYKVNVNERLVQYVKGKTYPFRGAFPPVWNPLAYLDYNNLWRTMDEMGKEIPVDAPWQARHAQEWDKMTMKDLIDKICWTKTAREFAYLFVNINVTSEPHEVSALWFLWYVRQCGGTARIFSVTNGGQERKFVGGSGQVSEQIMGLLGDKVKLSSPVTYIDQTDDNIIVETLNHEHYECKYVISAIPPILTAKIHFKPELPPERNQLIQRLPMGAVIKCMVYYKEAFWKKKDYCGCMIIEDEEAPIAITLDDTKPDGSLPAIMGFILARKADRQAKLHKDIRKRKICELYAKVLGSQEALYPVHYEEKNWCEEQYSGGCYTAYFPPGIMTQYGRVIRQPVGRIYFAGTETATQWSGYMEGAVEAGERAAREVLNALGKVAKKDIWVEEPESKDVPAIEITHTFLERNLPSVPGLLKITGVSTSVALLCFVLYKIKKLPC
As to the kind of experiment: Inhibition of MAO activity in vitro, rat brain homogenate, 5-HT substrate.
Protocol: The MAO enzyme source was a homogenate of rat brain in 0.3M sucrose, which was centrifuged at 600G for 15 minutes. The supernatant was diluted appropriately in 0.05M phosphate buffer, and pre-incubated with serial dilutions of test compounds for 20 minutes at 37°C. ^14C-Labeled substrates (2-phenylethylamine, hereinafter PEA; 5-hydroxytryptamine, hereinafter 5-HT) were then added, and the incubation continued for a further 20 minutes (PEA), or 30-45 minutes (5-HT). Substrate concentrations used were 50µM (PEA) and 1mM (5-HT). In the case of PEA, enzyme concentration was chosen so that not more than 10% of the substrate was metabolized during the course of the reaction. The deaminated products were extracted into toluene-ethyl acetate (1:1, v/v) containing 0.6% (w/v) 2,5-diphenyloxazole prior to determination by liquid scintillation counting. Radioactivity in the eluate indicates the production of neutral and acidic metabolites formed as a result of MAO activity. Activity of MAO in the sample was expressed as a percentage of control activity in the absence of inhibitors after subtraction of appropriate blank values The activity determined using PEA as substrate is referred to as MAO-B, and that determined using 5-HT as MAO-A.

A short description of data set [3]: Acute toxicity in mice (sub-cutaneous, lethality within 6 hours). The settings on record: mouse, in vivo, sc; for selectivity ratio: LD50 divided by ED50 (acetylcholine esterase ex vivo), read-out: Therapeutic Ratio (LD/AC); for LD50 at 6 h: sub-cutaneous, mice, within 6 hours. On the procedure: Drugs were administered sub-cutaneously in at least 3 doses, to a minimum of 10 mice per dose. […] Therapeutic Ratio was calculated as LD50 divided by ED50(acetylcholine esterase ex vivo).

The test system of data set [4] is mice. As to the kind of experiment: Survival time of mice in hypobaric hypoxic episode. The class given is in vivo. An excerpt: The model is based on that described in Nakanishi, M. et al. Life Sci. (1973) 13: 467; Oshiro, et al., J. Med. Chem. (1991) 34: 2004-2013; and US Patent 4,788,130.
A 12 liter desiccator (desiccator A) and a 2.5 liter desiccator (desiccator B) were separately connected to a vacuum pump. Desiccator B was disconnected and allowed to equilibrate with room air whilst desiccator A was evacuated to a pressure of 100mmHg. Four male ICR albino mice (22-28g) were placed in desiccator B. Desiccator B was then closed to room air and connected to desiccator A. The pressure inside desiccator B was monitored using a mercury manometer and at the point the pressure in desiccator B reached 200mmHg (usually within 14 seconds), the two desiccators were disconnected from the vacuum pump and the pump switched off. The survival time from the moment of induction of hypoxia to the time of cessation of respiration was recorded. for each mouse for a maximum of 15 minutes after which time room air was reintroduced to desiccator B. Survivors were monitored for signs of lethargy or vitality.
Effect of drug treatment was assessed as the percent of the survival time of the drug treated group with respect to the saline injected or vehicle injected control group. Control groups were run twice, before and after each experimental group and consisted of 8 mice in groups of 4 mice to ensure a constant residual volume of oxygen in all tests. The effect of each dose of test drug was determined in duplicate i.e. two groups of 4 mice.
Positive reference drugs were sodium pentobarbital at a dose of 40 mg/kg, and diazepam 10 mg/kg given 0.5h prior to hypoxia, physostigmine 0.2 and 0.4 mg/kg and neostigmine 0.2 mg/kg given sc 30 min before hypoxia. Methyl atropine 1 mg/kg was given sc. 10 min. before physostigmine.
The volume of injection was 0.2-0.3 mL per mouse (10 mL/kg). The initial dose was about one third of the reported LD50 for acetylcholine esterase inhibition. If no protection could be obtained, the dose was further increased to the nearest non-toxic dose. In case of protection, the dose was further reduced in an attempt to locate the "protective" dose range.

Data set [5] has as its target T2, whole brain AChE (Mus musculus, UniProt P21836).
T2 construct: the brains rapidly removed (minus cerebellum), weighed and homogenized in 0.1M phosphate buffer pH 8.0; from tissue; host or cells: mouse brain (minus cerebellum) homogenate supernatant
T2 sequence (P21836 32-614): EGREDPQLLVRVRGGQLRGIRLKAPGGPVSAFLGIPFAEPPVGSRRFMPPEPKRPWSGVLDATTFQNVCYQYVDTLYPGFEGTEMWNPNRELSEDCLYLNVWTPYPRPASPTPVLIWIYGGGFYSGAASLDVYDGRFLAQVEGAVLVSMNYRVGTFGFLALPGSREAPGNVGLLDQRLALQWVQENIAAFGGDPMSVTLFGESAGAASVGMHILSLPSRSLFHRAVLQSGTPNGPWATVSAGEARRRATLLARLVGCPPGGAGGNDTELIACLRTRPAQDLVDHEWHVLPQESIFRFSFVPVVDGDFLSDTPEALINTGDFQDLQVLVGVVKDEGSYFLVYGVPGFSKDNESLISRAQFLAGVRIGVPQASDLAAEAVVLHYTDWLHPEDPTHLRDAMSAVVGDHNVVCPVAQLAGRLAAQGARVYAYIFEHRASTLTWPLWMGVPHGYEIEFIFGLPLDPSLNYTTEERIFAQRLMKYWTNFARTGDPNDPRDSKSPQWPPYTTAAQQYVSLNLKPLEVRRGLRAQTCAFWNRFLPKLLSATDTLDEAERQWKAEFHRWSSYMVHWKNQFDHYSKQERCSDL
In words: Ex vivo measurement of brain AChE inhibition after sub-cutaneous administration. The settings on record: for Time to peak activity t / Time to return to 50% of peak t: AChE inhibition; for ED50: sc, sub-cutaneous, mouse whole brain, at peak of activity, read-out: AChE Inhibition Ex vivo ED50 (AC). Type of data set: in vivo, mice. On the procedure:
Test drugs or saline were administered sub-cutaneously to male mice (Sabra strain, 28-35g). At least 4-5 mice were used per dose and a minimum of 3 doses per drug were tested. The mice were sacrificed 15, 30, 60, 70, 90, 120 or 180 minutes after drug administration, the brains rapidly removed (minus cerebellum), weighed and homogenized in 0.1M phosphate buffer pH 8.0, containing Triton (1mg/100g tissue) and centrifuged to remove cell debris. Aliquots (25 µl) of the supernatant were then incubated with acetylthiocholine and DTNB. AChE activity measured as described above. The % inhibition of whole brain AChE by each dose of drug was calculated by comparison with enzyme activity from 3 saline treated control mice run at the same time.

Data set [6] deals with MAO-B. In words: Inhibition of MAO activity ex vivo (brain tissue), PEA substrate. Type of data set: in vivo, mice. The settings on record: mouse brain tissue. Here is the method:
as §1

[7] abbreviates: 4.1 mg/kg sc, 60 min before hypoxia.
Where [8] appears, read: 6.2 mg/kg sc, 60 min before hypoxia.

As usually defined, the IC50 is the concentration that gives 50% inhibition. Read a low IC50 as higher potency. Usually LD50 stands for the dose expected to kill half of the subjects tested. One may read the ED50 as the midpoint of the dose-response relation. As to `C#CCNCCc1cccc(OC(=O)N(C)C)c1` [Compound 11], the “MAO-A Inhibition Ex vivo ED50” value in data set [1] was determined as 40 µmol/kg. In addition, the half-inhibitory concentration (IC50) in data set [2] worked out at 2.5 µM. The selectivity ratio in data set [3] was found to be 13.8. The compound also displayed an LD50 at 6 h in data set [3] of 44.2 µmol/kg. Moreover, the “Protection (% of control)” value in data set [4] (2 mg/kg sc, 30 min before hypoxia) is reported as 302±212 % of control; in data set [4] (2 mg/kg sc, 60 min before hypoxia), 128±40 % of control; in data set [4] (4.1 mg/kg sc, 30 min before hypoxia) it was 501±201 % of control; in data set [4] (setting [7]) it was 416±211 % of control; in data set [4] (setting [8]), 331±168 % of control. Further, the “Time to peak activity t” value in data set [5] is given as 15 min. The “Time to return to 50% of peak t” value in data set [5] is recorded as 70 min. In data set [5], the ED50 amounted to 3.2 µmol/kg. The “MAO-B Inhibition Ex vivo ED50” value in data set [6] was >>30 µmoles/kg.

On to `C#CCN(C)CCc1cccc(OC(=O)N(C)C)c1` [Compound 12], for which the “MAO-A Inhibition Ex vivo ED50” value in data set [1] is 4 µmol/kg. In addition, in data set [2], half-maximal inhibition (IC50) was put at 0.38 µM. In addition, in data set [3], the selectivity ratio was 11.5 and the LD50 at 6 h was found to be 46 µmol/kg. Besides, the “Protection (% of control)” value in data set [4] (4.5 mg/kg sc, 60 min before hypoxia) is given as 97±36 % of control. The “Protection (% of control)” value in data set [4] (7 mg/kg sc, 60 min before hypoxia) is on record as 217±120 % of control. In data set [5], the “Time to peak activity t” value is 15 to 30 min, the “Time to return to 50% of peak t” value worked out at 120 min and the ED50 was found to be 2.8 µmol/kg. Further, the “MAO-B Inhibition Ex vivo ED50” value in data set [6] stood at 21 µmol/kg.

Turning to `C#CCNC(C)Cc1cccc(OC(=O)N(C)C)c1` (stereo not drawn) [Compound 16], the “MAO-A Inhibition Ex vivo ED50” value in data set [1] was over 20 µmol/kg. The compound further returned an IC50 in data set [2] of 7 µM. Besides, in data set [3], the selectivity ratio was determined as 18.3 and the LD50 at 6 h was found to be 42 µmol/kg. The “Protection (% of control)” value in data set [4] (setting [7]) was 335±202 % of control. In data set [4] (setting [8]), the “Protection (% of control)” value was 324±155 % of control. Also, the “Protection (% of control)” value in data set [4] (15 mg/kg sc, 60 min before hypoxia) is recorded as “toxic”. Besides, in data set [5], the “Time to peak activity t” value is given as 15 min, the “Time to return to 50% of peak t” value is on record as 70 min and the ED50 came to 2.3 µmol/kg. Further, the “MAO-B Inhibition Ex vivo ED50” value in data set [6] was over 20 µmol/kg.

Turning to `C#CCNC(C)Cc1cccc(OC(=O)N(C)CC)c1` (stereo not drawn) [Compound 17, 3-(N-Me,N-Etcarbamyloxy)α-methyl, N-propargyl phenethylamine.HCl], the “MAO-A Inhibition Ex vivo ED50” value in data set [1] was over 40 µmol/kg. In data set [2], this compound showed an IC50 of 12 µM. In data set [3], the selectivity ratio turned out to be 9.4 and the LD50 at 6 h was determined as 600 µmol/kg. For the same compound, the “Protection (% of control)” value in data set [4] (31 mg/kg sc, 60 min before hypoxia) is listed as 149±44 % of control. Further, the “Protection (% of control)” value in data set [4] (62 mg/kg sc, 60 min before hypoxia) is 419±122 % of control. In data set [4] (94 mg/kg sc, 60 min before hypoxia), the “Protection (% of control)” value is on record as 281±158 % of control. Further, in data set [5], the “Time to peak activity t” value was 30 to 60 min, the “Time to return to 50% of peak t” value was determined as 120 min and the ED50 is 64 µmol/kg. Besides, the “MAO-B Inhibition Ex vivo ED50” value in data set [6] was 40 µmol/kg.
